Test results from patent publication US7135466B2 (Kirin Beer Kabushiki Kaisha, priority 1999, dated 2006).

What was measured:
human KDR = biological target: T1, human KDR (Homo sapiens, UniProt P35968); assay: Inhibitory activity against KDR phosphorylation (NIH 3T3 cells transfected with human KDR, VEGF); assay type: cell-based; settings: VEGF 100 ng/ml
T1 construct: expressed in transfected cells; host or cells: NIH 3T3 cells
Method: Measurement of Inhibitory Activity Against KDR Phosphorylation
NIH 3T3 cells (Sawano A et al., Cell Growth & Differentiation, 7, 213–221 (1996)) prepared by transfection of human KDR were cultured in a DMEM medium containing 10% FBS (GIBCO BRL) within a 5% carbon dioxide incubator until 50 to 70% confluent. The harvested cells were inoculated into wells of a collagen-type one-coat 96-well flat-bottom plate, each containing the same medium, in an amount of 1.5×10^4 per well, followed by cultivation at 37° C. overnight. The medium was then replaced by a DMEM medium containing 0.1% FBS. A solution of a test compound in dimethyl sulfoxide was added to each well, and the cultivation was carried out at 37° C. for additional one hr. A human recombinant vascular endothelial growth factor (hereinafter abbreviated to “VEGF”) was added to a concentration of 100 ng/ml, and the stimulation of cells was carried out at 37° C. for 2 min. The medium was removed, the cells were washed with phosphate buffered saline (pH 7.4), and 50 μl of a solubilization buffer (20 mM HEPES (pH 7.4), 150 mM NaCl, 0.2% Triton X-100, 10% glycerol, 5 mM sodium orthovanadylate, 5 mM disodium ethylenediaminetetraacetate, and 2 mM Na4P2O7) was then added thereto. The mixture was shaken at 4° C. for 2 hr to prepare a cell extract.
An anti-phospho-tyrosine antibody (PY20; Transduction Laboratories) was immobilized on a microplate for ELISA (Maxisorp; NUNC), and the whole quantity of the cell extract was transferred to the wells, and the immobilized antibody was reacted with the phosphorylated protein at 4° C. overnight. After washing, an anti-KDR antibody (Santa Cruz) was allowed to react at room temperature for one hr, and, further, after washing, a peroxidase-labeled anti-rabbit Ig antibody (Amersham) was allowed to react at room temperature for one hr. After washing, a chromophoric substrate for peroxidase (Sumitomo Bakelite Co., Ltd.) was added thereto and was allowed to react at room temperature. After a suitable level of color development, a reaction termination solution was added to stop the reaction, and the absorbance at 450 nm was measured with a microplate reader. The KDR phosphorylation activity for each well was determined by presuming the absorbance with the addition of VEGF and without the addition of the medicament to be 100% KDR phosphorylation activity and the absorbance without the medicament and VEGF to be 0% KDR phosphorylation activity.
The concentration of the test compound was varied on several levels, the inhibition (%) of KDR phosphorylation was determined for each case, and the concentration of the test compound necessary for inhibiting 50% of KDR phosphorylation (IC50) was calculated.

[1] = test system: neointima of balloon-injured left carotid artery; assay: Rat carotid balloon injury model; assay type: in vivo; settings: po, 336 h, in vivo, *dose: 10 mg/kg, orally twice a day for 2 weeks, Wistar male rats, read-out: I/M ratio, inhibition (%)
Method: Rat Carotid Balloon Injury Model
Wistar male rats ([…]) were anesthetized with pentobarbital anesthesia, the right femoral region was incised from the rats, a Fogaty 2F catheter was inserted through the right femoral artery and was led to the left carotid artery, and abrasion was made three times with an expansion diameter of 2.5 mm.
The test compound was suspended in 1% cremophore, and the suspension was orally administered at 0.4 ml/100 g B.W. twice a day through an oral probe for rats for 2 weeks from the day before an operation. On the second week after the operation, the rats were sacrificed by ether. The left carotid artery was removed and was fixed in buffered formalin. Sliced preparations embedded in paraffin were stained with HE and were subjected to image analysis for the measurement of the neointima area (I) and media area (M) in the section of injured blood vessal. I/M was calculated as an index for the evaluation of drug efficacy.

c-kit = biological target: T2, c-kit (Homo sapiens, UniProt P10721); assay: Inhibitory activity against c-kit autophosphorylation (MO7e cells, h-SCF); assay type: cell-based; settings: for IC50: MO7e cells, 50 ng/ml h-SCF, read-out: c-kit IC50
T2 construct: MO7e (human megakaryocytic leukemia cell line) which had been arrested for 20 hr; endogenous in cells; host or cells: MO7e human megakaryocytic leukemia cell line
Summary of the method: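 MO7e human megakaryocytic leukemia cells, arrested 20 hr, treated with compound 1 hr, then stimulated with 50 ng/ml h-SCF for 5 min and lysed. Lysates captured on immobilized anti-phosphotyrosine antibody, detected with anti-c-kit primary and HRP secondary antibody; absorbance at 450 nm.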

PDGF-Ra = biological target: T3, PDGF-Ra (Homo sapiens, UniProt P16234); assay: Inhibitory activity against PDGF-Ra phosphorylation by PDGF-AA stimulation using G292; assay type: cell-based; settings: > means inhibition at indicated concentration not more than 50%, < and << not less than 50%; read-out: PDGF (E) IC50
T3 construct: host or cells: G-292 human osteosarcoma cells
Summary of the method: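 G-292 human osteosarcoma cells, serum-starved overnight in 0.1% FBS, were pretreated with compound in DMSO for 1 hr at 37 °C, then stimulated with 50 ng/ml PDGF-AA for 5 min. Lysates were captured on anti-phosphotyrosine PY-20 plates and probed with anti-PDGF-Ra plus HRP secondary; absorbance read at 450 nm.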

[2] = test system: intima of balloon-injured coronary vessel; assay: Porcine coronary balloon injury model; assay type: in vivo; settings: 10 mg/kg orally twice a day for 28 days, gelatin capsule, shoats
Method: Porcine Coronary Balloon Injury Model Edible shoats (24 to 31 kg) were anesthetized with telazol and xylazine, a balloon catheter was inserted through the femoral artery, and the descending branch in front of the heart on the left and the right rotator branch were injured under vasographing. For 28 days from the operation, the compound of Example 679 was orally administered as a gelatin capsule at a dose of 10 mg/kg twice a day. Further, only a gelatin capsule was administered as a control. In the test, each group consisted of 6 shoats. On the 28th day from the operation, the shoats were sacrificed with pentobarbital and were perfused with buffered formalin, and the heart was then removed. Paraffin embedded preparations of the injured blood vessel portion were sliced and stained with HE, followed by image analysis to measure the intima area (IA), media area (MA), and vessel area (VA), and the fissure length (FL) and vessel perimeter (VP) of the inner elastic plate. IA/MA and (IA/VA)/(FL/VP) were calculated as an index for the evaluation of drug efficacy.

T2 sequence (P10721 26-976): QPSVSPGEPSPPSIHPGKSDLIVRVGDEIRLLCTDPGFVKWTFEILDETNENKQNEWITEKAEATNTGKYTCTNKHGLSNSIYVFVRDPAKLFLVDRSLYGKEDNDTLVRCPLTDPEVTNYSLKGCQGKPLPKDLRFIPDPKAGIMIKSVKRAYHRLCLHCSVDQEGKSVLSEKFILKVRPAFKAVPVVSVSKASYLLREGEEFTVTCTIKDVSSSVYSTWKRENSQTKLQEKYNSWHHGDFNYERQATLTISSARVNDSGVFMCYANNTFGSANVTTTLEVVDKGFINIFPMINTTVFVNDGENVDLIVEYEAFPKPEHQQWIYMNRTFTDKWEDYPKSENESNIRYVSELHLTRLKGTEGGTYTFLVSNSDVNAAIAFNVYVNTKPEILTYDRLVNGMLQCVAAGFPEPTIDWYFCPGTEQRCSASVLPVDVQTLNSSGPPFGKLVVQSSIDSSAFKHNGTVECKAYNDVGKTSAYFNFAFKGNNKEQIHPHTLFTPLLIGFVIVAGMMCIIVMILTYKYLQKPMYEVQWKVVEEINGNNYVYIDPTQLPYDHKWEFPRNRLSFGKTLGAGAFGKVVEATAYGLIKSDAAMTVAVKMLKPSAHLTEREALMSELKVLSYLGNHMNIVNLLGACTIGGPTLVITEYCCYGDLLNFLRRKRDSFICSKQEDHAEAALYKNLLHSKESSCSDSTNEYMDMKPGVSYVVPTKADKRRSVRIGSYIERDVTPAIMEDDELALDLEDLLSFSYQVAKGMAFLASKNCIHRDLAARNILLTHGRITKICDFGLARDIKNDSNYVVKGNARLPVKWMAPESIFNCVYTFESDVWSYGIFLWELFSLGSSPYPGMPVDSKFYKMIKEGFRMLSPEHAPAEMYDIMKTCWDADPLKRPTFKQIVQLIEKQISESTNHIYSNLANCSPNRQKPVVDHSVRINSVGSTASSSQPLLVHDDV
T3 sequence (P16234 24-1089): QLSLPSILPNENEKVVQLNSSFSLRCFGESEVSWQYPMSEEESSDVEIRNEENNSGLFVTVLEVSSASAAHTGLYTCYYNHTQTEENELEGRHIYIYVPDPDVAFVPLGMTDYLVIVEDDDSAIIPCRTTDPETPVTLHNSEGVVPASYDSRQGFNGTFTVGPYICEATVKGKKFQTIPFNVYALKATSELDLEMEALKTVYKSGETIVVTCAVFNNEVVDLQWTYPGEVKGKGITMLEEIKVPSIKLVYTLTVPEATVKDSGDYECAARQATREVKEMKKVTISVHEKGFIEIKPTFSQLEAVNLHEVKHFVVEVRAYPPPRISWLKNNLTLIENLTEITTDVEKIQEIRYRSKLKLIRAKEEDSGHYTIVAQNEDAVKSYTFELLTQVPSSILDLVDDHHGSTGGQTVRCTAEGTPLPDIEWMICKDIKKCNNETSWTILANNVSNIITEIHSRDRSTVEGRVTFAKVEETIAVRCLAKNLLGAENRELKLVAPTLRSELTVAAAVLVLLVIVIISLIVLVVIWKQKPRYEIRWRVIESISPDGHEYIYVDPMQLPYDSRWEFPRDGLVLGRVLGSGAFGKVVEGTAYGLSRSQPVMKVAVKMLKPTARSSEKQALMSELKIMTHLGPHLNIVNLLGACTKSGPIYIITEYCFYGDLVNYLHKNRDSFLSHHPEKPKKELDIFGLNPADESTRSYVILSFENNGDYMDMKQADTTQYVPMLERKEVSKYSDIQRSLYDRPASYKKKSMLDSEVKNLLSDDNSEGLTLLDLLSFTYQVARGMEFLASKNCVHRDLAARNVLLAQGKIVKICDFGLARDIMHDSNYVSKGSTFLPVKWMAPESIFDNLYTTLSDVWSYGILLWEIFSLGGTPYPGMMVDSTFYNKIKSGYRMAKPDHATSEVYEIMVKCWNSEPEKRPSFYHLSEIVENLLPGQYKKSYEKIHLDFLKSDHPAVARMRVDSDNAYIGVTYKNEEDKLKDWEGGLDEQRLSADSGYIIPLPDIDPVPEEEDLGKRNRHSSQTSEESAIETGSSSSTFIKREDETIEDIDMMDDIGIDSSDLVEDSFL
T1 sequence (P35968 20-1356): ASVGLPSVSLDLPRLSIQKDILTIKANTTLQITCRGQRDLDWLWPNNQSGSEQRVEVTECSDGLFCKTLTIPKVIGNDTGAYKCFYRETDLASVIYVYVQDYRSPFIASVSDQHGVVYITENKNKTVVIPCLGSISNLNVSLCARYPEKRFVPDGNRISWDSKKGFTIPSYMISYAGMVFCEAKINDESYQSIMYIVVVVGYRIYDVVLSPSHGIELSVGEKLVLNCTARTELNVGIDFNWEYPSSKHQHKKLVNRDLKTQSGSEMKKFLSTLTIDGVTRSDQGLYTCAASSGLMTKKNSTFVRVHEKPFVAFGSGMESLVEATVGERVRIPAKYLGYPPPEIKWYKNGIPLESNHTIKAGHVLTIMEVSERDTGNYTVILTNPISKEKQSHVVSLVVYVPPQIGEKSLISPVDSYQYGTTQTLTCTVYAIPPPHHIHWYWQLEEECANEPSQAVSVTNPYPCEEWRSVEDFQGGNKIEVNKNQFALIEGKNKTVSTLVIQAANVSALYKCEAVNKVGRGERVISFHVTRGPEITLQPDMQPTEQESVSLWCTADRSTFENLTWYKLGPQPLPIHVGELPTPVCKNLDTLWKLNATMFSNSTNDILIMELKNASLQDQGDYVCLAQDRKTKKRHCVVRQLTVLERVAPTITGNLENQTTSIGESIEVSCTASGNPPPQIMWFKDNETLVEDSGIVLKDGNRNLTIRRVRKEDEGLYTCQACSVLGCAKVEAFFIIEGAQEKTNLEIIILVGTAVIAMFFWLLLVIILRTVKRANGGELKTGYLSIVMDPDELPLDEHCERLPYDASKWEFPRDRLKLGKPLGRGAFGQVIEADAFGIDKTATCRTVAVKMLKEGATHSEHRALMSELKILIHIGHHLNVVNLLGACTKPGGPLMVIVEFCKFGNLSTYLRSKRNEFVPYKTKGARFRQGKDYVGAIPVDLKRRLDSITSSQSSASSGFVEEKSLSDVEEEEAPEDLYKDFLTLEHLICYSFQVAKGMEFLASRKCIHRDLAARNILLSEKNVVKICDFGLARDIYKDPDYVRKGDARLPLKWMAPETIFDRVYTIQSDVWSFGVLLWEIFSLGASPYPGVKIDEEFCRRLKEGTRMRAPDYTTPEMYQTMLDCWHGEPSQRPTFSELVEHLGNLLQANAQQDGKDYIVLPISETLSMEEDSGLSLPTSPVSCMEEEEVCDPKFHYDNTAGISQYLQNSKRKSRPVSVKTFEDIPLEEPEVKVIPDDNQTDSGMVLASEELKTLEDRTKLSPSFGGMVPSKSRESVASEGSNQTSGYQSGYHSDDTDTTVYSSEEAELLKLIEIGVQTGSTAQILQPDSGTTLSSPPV

| IC50 (human KDR) [nM] | IC50 (c-kit) [µM] | IC50 (PDGF-Ra) [µM] | inhibition at 1 µM (c-kit; Mo7e, figure within parentheses in −( ) or >1000( ), at 1000 nM) [%] | SMILES | inhibition in vivo at 10 mg/kg [1] [%] | (IA/VA)/(FL/VP) inhibition (%) [2] | IA/MA inhibition (%) [2] |
| --- | --- | --- | --- | --- | --- | --- | --- |
| 599 | 0.712 | 0.013 | – | CCN(CC)CCNC(=O)Nc1ccc(Oc2ncnc3cc(OC)c(OC)cc23)cc1[N+](=O)[O-] [Example 647, N-[2-(Diethylamino)ethyl]-N′-{4-[(6,7-dimethoxy-4-quinazolinyl)oxy]-2-nitrophenyl}urea] | 32 | – | – |
| 323 | 0.337 | < 0.01 | – | COc1cc2ncnc(Oc3ccc(NC(=O)NCCN4CCCCC4)c([N+](=O)[O-])c3)c2cc1OC [Example 679, N-{4-[(6,7-Dimethoxy-4-quinazolinyl)oxy]-2-nitrophenyl}-N′-(2-piperidinoethyl)urea] | 54 | 47 (p < 0.001) % | 36 (p < 0.05) % |
| 176 | – | 0.026 | 34 | CCCCN(CCCC)CCNC(=O)Nc1ccc(Oc2ncnc3cc(OC)c(OC)cc23)cc1[N+](=O)[O-] [Example 687, N-[2-(Dibutylamino)ethyl]-N′-{4-[(6,7-dimethoxy-4-quinazolinyl)oxy]-2-nitrophenyl}urea] | 17 | – | – |
